These results are taken from patent US9926315B2, “Triazolopyridine compounds and methods for the treatment of cystic fibrosis” (Flatley Discovery Lab, LLC, priority 2014, dated 2018).

The test has as its target T1, human ΔF508-CFTR (Homo sapiens, UniProt P13569, DEL508-508).
T1 construct: expressed in transfected cells
In words: CFTR-YFP High Throughput Assay (HTS YFP flux assay, corrector / potentiator protocols). Type of test: cell-based. The conditions noted are these: FRT cells stably expressing human ΔF508-CFTR and YFP-H148Q/I152L; for Emax: normalized to positive control, read-out: Emax (% Efficacy, EMax normalized to the positive control). The method, then:
Assays for Detecting and Measuring the Effect of Compounds on dF508-CFTR Channels CFRT-YFP High Throughput Assay: Corrector Assay:
The following protocol is designed to selectively screen small molecule compounds for F508del CFTR corrector activities in the HTS YFP flux assay. In this protocol, the cells are incubated with testing compounds for 24 hours, washed with PBS, stimulated with forskolin and a standard potentiator, and read on a 384-well HTS plate reader, such as the Hamamatsu FDDD-6000.
YFP fluorescence intensity is acquired at high speed before and after iodide buffer is injected to the assay cells. Iodide enters the cells via active CFTR channels in the plasma membrane, and quenches the YFP fluorescence. The rate of fluorescence quenching is proportionally related to the total CFTR activities in the cell membrane. dF508-CFTR corrector accelerates YFP quenching by increasing the number of CFTR molecules in the testing cell plasma membrane.
This method was initially developed for bench top plate readers (Galietta, 2001), and was adapted to the HTS format (Sui, 2010).
Fisher Rat Thyroid (FRT) cells stably expressing both human ΔF508-CFTR and a halide-sensitive yellow fluorescent protein (YFP-H148Q/I152L 25, 22) (Galietta, 2001) were cultured on plastic surface in Coon's modified Ham's F12 medium supplemented with FBS 10%, L-glutamine 2 mM, penicillin 100 U/mL, and streptomycin 100 μg/mL. G418 (0.75-1.0 mg/mL) and zeocin (3.2 μg/mL) were used for selection of FRT cells expressing ΔF508-CFTR and YFP. For primary screening, FRT cells were plated into 384-well black wall, transparent bottom microtiter plates (Costar; Corning Inc.) at a cell density of 20, 000-40, 000 per well. Test compound was applied to the cells at varying concentrations ranging from 2 nM-[…] in either a 2-fold or 3-fold dilution series. Cells were incubated in a cell culture incubator at 37° C. with 5% CO2 for 24-26 h. Assay plates were washed with DPBS media (Thermo, cat#SH30028.02) to remove unbound cells and compound. Stimulation media (25 μL) containing 20 μM Forskolin & 30 μM P3 [6-(Ethyl-phenyl-sulfonyl)-4-oxo-1, 4-dihydro-quinoline-3-carboxylic acid 2-methoxy-benzylamide] in Hams F-12 coon's modified media was added to the plate wells and incubated at room temperature for 60-120 min. 25 μL of HEPES-PBS-I buffer (10 mM HEPES, 1 mM MgCl2, 3 mM KCl, 1 mM CaCl2, 150 mM NaI) was then added and fluorescence quench curves (Excitation 500 nm/Emission 540 nm; exposure 136 ms) were immediately recorded on an FDSS-6000 plate reader (Hamamatsu). Quench rates were derived from least squares fitting of the data (Sui, 2010).
The following protocol is designed to selectively screen small molecule compounds for F508del CFTR potentiator activities in the HTS YFP flux assay. In this protocol, the cells are incubated at 27° C. for 24 hours with homogeneously boosted dF508-CFTR expression in the cell membrane by the low temperature, washed with PBS, stimulated with forskolin, and read on a 384-well HTS plate reader, such as the Hamamatsu […].
YFP fluorescence intensity is acquired at high speed before and after iodide buffer is injected to the assay cells. Iodide enters the cells via active CFTR channels in the plasma membrane, and quenches the YFP fluorescence. The rate of fluorescence quenching is proportionally related to the total CFTR activities in the cell membrane. dF508del-CFTR potentiators accelerate YFP quenching by increasing CFTR activities in the testing cell plasma membrane.
Fisher Rat Thyroid (FRT) cells stably expressing both human ΔF508-CFTR and a halide-sensitive yellow fluorescent protein (YFP-H148Q/I152L 25, 22) (Galietta, 2001) were cultured on plastic surface in Coon's modified Ham's F12 medium supplemented with FBS 10%, L-glutamine 2 mM, penicillin 100 U/mL, and streptomycin 100 μg/mL. G418 (0.75-1.0 mg/mL) and zeocin (3.2 μg/mL) were used for selection of FRT cells expressing ΔF508-CFTR and YFP. […]

A value given as a limit tells only on which side of the number the result lay.

T1 sequence (P13569 with tags, fused parts or gaps DEL508-508): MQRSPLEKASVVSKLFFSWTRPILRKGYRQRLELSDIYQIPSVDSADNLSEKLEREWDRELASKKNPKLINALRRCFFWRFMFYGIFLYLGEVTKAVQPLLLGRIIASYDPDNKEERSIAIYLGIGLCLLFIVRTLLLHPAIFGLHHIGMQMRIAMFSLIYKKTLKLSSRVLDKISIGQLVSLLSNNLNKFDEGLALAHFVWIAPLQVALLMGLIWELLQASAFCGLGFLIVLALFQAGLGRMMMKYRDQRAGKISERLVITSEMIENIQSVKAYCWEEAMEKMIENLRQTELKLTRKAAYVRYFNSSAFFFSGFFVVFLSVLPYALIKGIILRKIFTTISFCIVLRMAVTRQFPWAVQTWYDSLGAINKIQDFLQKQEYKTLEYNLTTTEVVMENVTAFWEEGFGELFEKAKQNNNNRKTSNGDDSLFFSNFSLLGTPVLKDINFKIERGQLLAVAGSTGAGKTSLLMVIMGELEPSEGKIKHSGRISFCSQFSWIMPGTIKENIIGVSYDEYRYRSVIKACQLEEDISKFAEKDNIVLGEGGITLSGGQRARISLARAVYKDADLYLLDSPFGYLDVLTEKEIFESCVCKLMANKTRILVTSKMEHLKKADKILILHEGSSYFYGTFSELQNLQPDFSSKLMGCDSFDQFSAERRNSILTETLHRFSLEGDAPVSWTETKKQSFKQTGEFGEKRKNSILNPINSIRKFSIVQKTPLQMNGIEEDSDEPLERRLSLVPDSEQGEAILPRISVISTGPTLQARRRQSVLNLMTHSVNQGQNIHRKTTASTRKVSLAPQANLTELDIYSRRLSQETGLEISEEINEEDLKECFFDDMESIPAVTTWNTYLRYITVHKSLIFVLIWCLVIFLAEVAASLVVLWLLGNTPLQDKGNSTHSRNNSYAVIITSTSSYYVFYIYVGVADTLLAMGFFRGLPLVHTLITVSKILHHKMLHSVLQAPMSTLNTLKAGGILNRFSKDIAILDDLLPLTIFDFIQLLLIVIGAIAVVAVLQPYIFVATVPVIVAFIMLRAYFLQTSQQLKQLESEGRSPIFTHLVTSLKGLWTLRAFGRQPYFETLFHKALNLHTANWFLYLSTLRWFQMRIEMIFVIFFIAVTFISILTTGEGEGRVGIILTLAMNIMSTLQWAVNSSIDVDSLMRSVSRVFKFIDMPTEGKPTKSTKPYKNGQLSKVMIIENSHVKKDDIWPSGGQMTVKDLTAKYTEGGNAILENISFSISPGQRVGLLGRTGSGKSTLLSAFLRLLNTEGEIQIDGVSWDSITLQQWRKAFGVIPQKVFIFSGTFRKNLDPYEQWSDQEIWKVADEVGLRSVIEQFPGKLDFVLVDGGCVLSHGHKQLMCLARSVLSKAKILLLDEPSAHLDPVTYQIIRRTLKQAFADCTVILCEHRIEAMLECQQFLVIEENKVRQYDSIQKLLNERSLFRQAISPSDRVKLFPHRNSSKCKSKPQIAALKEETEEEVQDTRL

As a reminder, the EC50 is the concentration giving half of the maximal effect. What is called Emax is the size of the effect at its maximum, as opposed to the concentration needed. For `O=S(=O)(c1ccccc1)c1ccc2nc(NCc3ccc(-c4ccccn4)cc3)nn2c1` [Example 94, 6-(phenylsulfonyl)-N-(4-(pyridin-2-yl)benzyl)-[1,2,4]triazolo[1,5-a]pyridin-2-amine], the EC50 was < 1000 nM and the maximal response (Emax) was > 80%.
For the compound `O=S(=O)(c1ccccc1)c1ccc2nnc(NCc3ccc(C(F)(F)F)cc3)n2c1` [Example 63], the EC50 was < 1000 nM and the maximal effect (Emax) was 40 to 80%.
In the case of `CCN(CC)S(=O)(=O)c1ccc2nnc(N[C@H](C)c3ccccc3)n2c1` [Example 20], the EC50 is < 1000 nM and the Emax is > 80%.
Consider `O=S(=O)(c1ccccc1)c1ccc2nnc(NCC(O)COc3ccccc3)n2c1` (stereo not drawn) [Example 67], for which the EC50 is < 1000 nM and the Emax was > 80%.
Turning to `CCN(CC)S(=O)(=O)c1ccc2nnc(NCc3ccc(F)cc3)n2c1` [Example 49], the EC50 was < 1000 nM and the Emax is > 80%.
For `CCN(CC)S(=O)(=O)c1ccc2nnc(N[C@@H](C)C(=O)N3CCCCC3)n2c1` [Example 57], in that order: 1000 to 10000 nM and 40 to 80%.
In the case of `O=S(=O)(c1ccccc1)c1ccc2nc(NC[C@H](O)c3ccccc3)nn2c1` [Example 83], the EC50 is < 1000 nM and the Emax was > 80%.
Turning to `CCN(CC)S(=O)(=O)c1ccc2nnc(NCC(C)C)n2c1` [Example 17], the EC50 is < 1000 nM and the maximum response (Emax) was > 80%.
For `CCN(CC)S(=O)(=O)c1ccc2nnc(NC3CCCCC3)n2c1` [Example 11] the same measures were < 1000 nM and > 80%.
For `CN1CCC(c2ccc(CNc3nc4ccc(S(=O)(=O)c5ccccc5)cn4n3)cc2)CC1` [Example 93], in that order: < 1000 nM and > 80%.
For `CCN(CC)S(=O)(=O)c1ccc2nnc(NC3CCCC3)n2c1` [Example 26], in that order: < 1000 nM and > 80%.
With `CCN(CC)S(=O)(=O)c1ccc2nnc(NCC3CC3)n2c1` [Example 8], the EC50 is < 1000 nM and the maximal response (Emax) was > 80%.
For `CCN(CC)S(=O)(=O)c1ccc2nnc(NCC3CCOCC3)n2c1` [Example 50], in that order: < 1000 nM and > 80%.
For `O=S(=O)(c1ccc2nc(NCc3ccc4c(c3)OCO4)nn2c1)N1CCCCC1` [Example 101, N-(benzo[d][1,3]dioxol-5-ylmethyl)-6-(piperidin-1-ylsulfonyl)-[1,2,4]-triazolo[1,5-a]pyridin-2-amine], in that order: 1000 to 10000 nM and > 80%.
`CC(C)N(C(C)C)S(=O)(=O)c1ccc2nnc(N[C@H](C)c3ccccc3)n2c1` [Example 47]: the half-maximal effective concentration (EC50) is < 1000 nM and the Emax was in the range of 40 to 80%.
For the compound `CCN(CC)S(=O)(=O)c1ccc2nnc(NC(C)C(C)C)n2c1` (stereo not drawn) [Example 43], the EC50 was < 1000 nM and the Emax is > 80%.
`COC[C@@H](Nc1nnc2ccc(S(=O)(=O)c3ccccc3)cn12)c1ccccc1` [Example 68]: the EC50 is < 1000 nM and the Emax is > 80%.
Regarding `O=S(=O)(c1ccccc1)c1ccc2nnc(NCc3ccc(-c4ccccn4)cc3)n2c1` [Example 65], the EC50 was < 1000 nM and the Emax is > 80%.
For `CCN(CC)S(=O)(=O)c1ccc2nnc(NCc3ccccc3F)n2c1` [Example 54] the same measures were 1000 to 10000 nM and > 80%.
For `C[C@@H](Nc1nnc2ccc(S(=O)(=O)c3ccccc3)cn12)c1ccccc1` [Example 62, (R)—N-(1-Phenylethyl)-6-(phenylsulfonyl)-[1,2,4]triazolo[4,3-a]pyridin-3-amine] the same measures were < 1000 nM and > 80%.
`CCN(CC)S(=O)(=O)c1ccc2nnc(NCc3ccc(OC(F)(F)F)cc3)n2c1` [Example 55]: the EC50 was < 1000 nM and the Emax lay within 10 to 40%.
In the case of `CCN(CC)S(=O)(=O)c1ccc2nnc(NCc3ccc(OC)cc3)n2c1` [Example 16], the EC50 was < 1000 nM and the Emax was 40 to 80%.
For `CCN(CC)S(=O)(=O)c1ccc2nnc(N[C@H](C)c3ccc(F)cc3)n2c1` [Example 41] the same measures were < 1000 nM and > 80%.
For `CCN(CC)S(=O)(=O)c1ccc2nnc(NCC(O)COC)n2c1` (stereo not drawn) [Example 24], in that order: 1000 to 10000 nM and > 80%.
Turning to `CCN(CC)S(=O)(=O)c1ccc2nnc(NC(C)c3ccc(OC)cc3)n2c1` (stereo not drawn) [Example 28], the EC50 was < 1000 nM and the Emax is > 80%.
As to `CCN(CC)S(=O)(=O)c1ccn2c(NCC(C)(C)C)nnc2c1` [Example 60, N,N-Diethyl-3-(neopentylamino)-[1,2,4]triazolo[4,3-a]pyridine-7-sulfonamide], the concentration giving a half-maximal response (EC50) is < 1000 nM and the Emax was > 80%.
For the compound `CCN(CC)S(=O)(=O)c1ccc2nnc(N3CCN(Cc4ccccc4)CC3)n2c1` [Example 6], the EC50 is 1000 to 10000 nM and the Emax was 40 to 80%.
For the compound `CCN(CC)S(=O)(=O)c1ccc2nnc(N[C@@H]3C[C@H]4CC[C@@H]3C4)n2c1` [Example 33], the half-maximal effective concentration (EC50) is < 1000 nM and the Emax was > 80%.
In the case of `CCN(CC)S(=O)(=O)c1ccc2nnc(NCc3ccccc3C)n2c1` [Example 13], the concentration giving a half-maximal response (EC50) was < 1000 nM and the Emax fell in the range of 40 to 80%.
Regarding `O=C(CNc1nc2ccc(S(=O)(=O)c3ccccc3)cn2n1)C1CCCCC1` [Example 87], the EC50 was < 1000 nM and the Emax is > 80%.
Turning to `CCN(c1cccnc1)S(=O)(=O)c1ccc2nnc(N[C@H](C)c3ccccc3)n2c1` [Example 58, (R)—N-Ethyl-3-((1-phenylethyl)amino)-N-(pyridin-3-yl)-[1,2,4]triazolo[4,3-a]pyridine-6-sulfonamide], the EC50 is < 1000 nM and the Emax was in the range of 40 to 80%.
Take `CCN(CC)S(=O)(=O)c1ccc2nnc(NC3CCc4ccccc43)n2c1` (stereo not drawn) [Example 30]: the EC50 is < 1000 nM and the Emax is > 80%.
Consider `CCN(CC)S(=O)(=O)c1ccc2nnc(NCC3CCCO3)n2c1` (stereo not drawn) [Example 14], for which the EC50 is > 10000 nM and the Emax lay within 40 to 80%.
In the case of `c1ccc(-c2ccc3nc(Nc4ccc(-c5ccccn5)cc4)nn3c2)cc1` [Example 100, 6-phenyl-N-(4-(pyridin-2-yl)phenyl)-[1,2,4]triazolo[1,5-a]pyridin-2-amine], the EC50 was 1000 to 10000 nM and the maximal response (Emax) lay in the range of 40 to 80%.
Turning to `CCN(CC)S(=O)(=O)c1ccc2nnc(NCC(=O)Nc3ccc(C)c(C)c3)n2c1` [Example 22], the concentration for a half-maximal effect (EC50) is < 1000 nM and the Emax fell in the range of 40 to 80%.
As to `CCN(CC)S(=O)(=O)c1ccc2nnc(NC3CCc4ccccc4C3)n2c1` (stereo not drawn) [Example 32], the EC50 lay in the range of 1000 to 10000 nM and the Emax lay in the range of 40 to 80%.
On to `CCN(CC)S(=O)(=O)c1ccc2nnc(NCC(C)(C)O)n2c1` [Example 18], for which the half-maximal effective concentration (EC50) is 1000 to 10000 nM and the Emax is 40 to 80%.
As for `CCN(CC)S(=O)(=O)c1ccc2nnc(N[C@@H]3CCc4ccccc43)n2c1` [Example 46], the EC50 was < 1000 nM and the Emax lay in the range of 40 to 80%.
Regarding `O=S(=O)(c1ccccc1)c1ccc2nnc(NCC(O)c3ccc(F)cc3)n2c1` (stereo not drawn) [Example 75], the EC50 is < 1000 nM and the Emax was > 80%.
